Laboratory results: PMC12610274, “Identification of Marrubiin as a Cathepsin C Inhibitor for Treating Rheumatoid Arthritis” (Molecules, 2025)

What was measured:
NE [1] = experiment: Stability (protein level) of NSPs in U937 cells, Western blot, NE; format: cell-based, human; conditions: U937, 10 μM
Protocol: The Western blot experiments in this study were performed as described below. Cells in the logarithmic growth phase were collected in appropriate numbers according to different experimental purposes. After being thoroughly washed with phosphate-buffered saline and centrifuged, the cell pellets were resuspended in phosphate-buffered saline to obtain single-cell suspensions. Cells were fully lysed using RIPA buffer (Beyotime, P0013B) supplemented with EDTA-free protease and phosphatase inhibitor (Abcam, ab201120). Total cellular protein solutions were obtained after centrifugation to remove cell debris. The isolated proteins were quantified using the BeyoBCA protein assay kit (Beyotime, P0399M) following the operational protocol. The quantified protein samples were thoroughly mixed with protein loading buffer, boiled on a dry bath for 5 min, and then cooled to room temperature for Western blot analysis. […] Finally, enhanced chemiluminescent horseradish peroxidase substrate (Tanon Science & Technology Co., Ltd., Shanghai, China, 180-506) was used to visualize protein bands on a ChemiDoc XRS system (Bio-Rad Laboratories, Inc., Hercules, CA, USA), and the protein bands were quantified using Image Lab analysis software (Version 6.1) (Bio-Rad). […]

Cat G = Cat G activity in blood and bone marrow of mice; format: in vivo, C57BL/6 mice; conditions: 30 mg/kg daily gavage, 7 days
Protocol: A total of 25 C57BL/6 mice (6–8 weeks old, weighing approximately 20 g, with equal numbers of males and females) were randomly divided into five groups. Mice in the compound-treated groups were orally administered the compound once daily at doses of 0.3, 3, and 30 mg/kg for 7 consecutive days. […] Mice in the normal group were given an equal volume of normal saline at the same time points. The body weight, death rate, and behavior were observed and recorded daily for one week. After 7 days, bone marrow and blood samples were collected from the mice and lysed using 8% Triton X-100 buffer. The lysates were stored at −20 °C until testing. The activity assays for CTSC and NSPs were performed as described above. The mice were anesthetized and the tissues were taken for H&E staining.

CTSC = CTSC (Homo sapiens, UniProt P53634); experiment: CTSC activity in U937 cells after 5 days of treatment; format: cell-based; set-up: endogenous in cells; host or cells: U937; conditions: U937, 5 days, marrubiin and AZD7986 at the same concentration
Protocol: (§1) U937 cells in the logarithmic growth phase were collected and equally divided into six portions. Four of these portions were treated with DMSO solutions of the test compound at varying concentrations to achieve final concentrations of 1.25, 2.5, 5, and 10 μM, respectively. An equal volume of DMSO was added to one portion as a blank control, while another portion treated with a DMSO solution of AZD7986 served as a positive control. The cells were cultured under standard U937 conditions for 5 consecutive days, with daily medium changes and fresh compound treatments administered using the same protocol. Following 5 days of treatment, cells were harvested, washed twice thoroughly with phosphate-buffered saline, and lysed in phosphate-buffered saline containing 1% Triton X-100. The lysates were centrifuged to collect the supernatant, and protein concentrations were determined as previously described to ensure equal total protein loading across all samples. The prepared samples were stored at −20 °C until further analysis. Different assay buffers were prepared for diluting samples and measuring the activities of specific NSPs: a buffer containing 50 mM Tris and 750 mM NaCl (pH 7.4) was used for NE and PR3; a buffer containing 50 mM Tris, 750 mM NaCl, 5 mM EDTA (pH 7.4) was used for Cat G; and a buffer containing 25 mM MES, 50 mM NaCl, 5 mM DTT (pH 6.0) was used for CTSC. […]

NE [2] = experiment: NSPs activity in U937 cells after 5 days of treatment, NE; format: cell-based, human; conditions: U937, 10 μM
Protocol: as §1

[3] = Cytotoxicity assay, U937 cell line; format: cell-based; conditions: human, U937 cells
Protocol: RAW264.7 cells and U937 cells in the logarithmic growth phase were counted and diluted, and the concentrations of the single-cell suspensions of the two types of cells were adjusted to 5 × 10^4 cells/mL and 3 × 10^4 cells/mL, respectively. After thorough mixing, the cells were seeded into a 96-well plate, with 100 μL of cell suspension added to each well. Prepare the working solution of test compounds using the corresponding medium as the solvent, with the concentration of working solution being 2 times the final test concentration (2.5 μM, 5 μM, 10 μM, 20 μM, and 40 μM). Twenty-four hours after cell seeding, the compound working solutions were added to the compound test wells, and the same volume of medium was added to the negative control wells, followed by continuous incubation for another 24 h. Only the wells with the same volume but without cells served as the blank control group. The CellTiter-Lumi™ luminescent cell viability assay kit (Beyotime Biotechnology, Shanghai, China, C0065XL) was used to detect cell viability according to the standard operating procedures. Each group of tests was independently repeated at least 3 times, and IC50 values were calculated using SPSS 10.0.

Sequence of CTSC (P53634 25-463): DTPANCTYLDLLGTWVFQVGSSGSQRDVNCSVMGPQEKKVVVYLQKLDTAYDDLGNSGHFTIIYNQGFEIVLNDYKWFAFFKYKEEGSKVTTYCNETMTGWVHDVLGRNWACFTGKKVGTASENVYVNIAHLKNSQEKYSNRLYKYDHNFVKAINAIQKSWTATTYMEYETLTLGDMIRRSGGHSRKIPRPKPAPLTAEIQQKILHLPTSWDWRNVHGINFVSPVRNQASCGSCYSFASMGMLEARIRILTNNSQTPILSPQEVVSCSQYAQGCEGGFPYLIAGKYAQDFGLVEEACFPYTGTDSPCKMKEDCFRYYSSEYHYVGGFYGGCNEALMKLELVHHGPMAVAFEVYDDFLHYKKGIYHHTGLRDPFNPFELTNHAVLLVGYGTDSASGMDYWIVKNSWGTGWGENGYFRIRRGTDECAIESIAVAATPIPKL

SMILES: C[C@@H]1C[C@H]2OC(=O)[C@@]3(C)CCC[C@@](C)([C@@H]23)[C@@]1(O)CCc1ccoc1 [Marrubiin, marrubiin]
- NE protein level, % of original level (NE [1]; 96 h): 15.7%
- NE protein level, % of original level (NE [1]; 5 days): 8.7%
- remaining activity rate of Cat G (Cat G; blood): ~35.5%
- remaining activity rate of Cat G (Cat G; bone marrow): ~40.2%
- residual CTSC activity (CTSC): less than 8%
- NE activity, % of DMSO group (NE [2]): 8.2%
- IC50 at 24 h [3]: > 10 µM
